Reference: patent US10202370B2, “Benzimidazole derivatives as selective proteine kinase inhibitors” (AB SCIENCE, priority 2013, dated 2019)

biological target: c-kit WT (Homo sapiens (Human), UniProt P10721); assay: Proliferation assay (CellTiter-Blue) on BaF3 Kit WT cell line; type: cell-based; details: BaF3 Kit WT cell line (murine Ba/F3 expressing Human Kit WT, with murine SCF), 48 hours
How it was run: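 Ba/F3 cells expressing human Kit WT, maintained in RPMI/10% FCS with 250 ng/ml murine SCF, were seeded at 2.10^4 cells/well and exposed to ½ serial dilutions (0–10 μM) for 48 h at 37° C. Viability was measured by CellTiter-Blue fluorescence (544Ex/590Em, 4 h) in triplicate as % of untreated proliferation.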

c-kit WT, sequence (P10721 26-976): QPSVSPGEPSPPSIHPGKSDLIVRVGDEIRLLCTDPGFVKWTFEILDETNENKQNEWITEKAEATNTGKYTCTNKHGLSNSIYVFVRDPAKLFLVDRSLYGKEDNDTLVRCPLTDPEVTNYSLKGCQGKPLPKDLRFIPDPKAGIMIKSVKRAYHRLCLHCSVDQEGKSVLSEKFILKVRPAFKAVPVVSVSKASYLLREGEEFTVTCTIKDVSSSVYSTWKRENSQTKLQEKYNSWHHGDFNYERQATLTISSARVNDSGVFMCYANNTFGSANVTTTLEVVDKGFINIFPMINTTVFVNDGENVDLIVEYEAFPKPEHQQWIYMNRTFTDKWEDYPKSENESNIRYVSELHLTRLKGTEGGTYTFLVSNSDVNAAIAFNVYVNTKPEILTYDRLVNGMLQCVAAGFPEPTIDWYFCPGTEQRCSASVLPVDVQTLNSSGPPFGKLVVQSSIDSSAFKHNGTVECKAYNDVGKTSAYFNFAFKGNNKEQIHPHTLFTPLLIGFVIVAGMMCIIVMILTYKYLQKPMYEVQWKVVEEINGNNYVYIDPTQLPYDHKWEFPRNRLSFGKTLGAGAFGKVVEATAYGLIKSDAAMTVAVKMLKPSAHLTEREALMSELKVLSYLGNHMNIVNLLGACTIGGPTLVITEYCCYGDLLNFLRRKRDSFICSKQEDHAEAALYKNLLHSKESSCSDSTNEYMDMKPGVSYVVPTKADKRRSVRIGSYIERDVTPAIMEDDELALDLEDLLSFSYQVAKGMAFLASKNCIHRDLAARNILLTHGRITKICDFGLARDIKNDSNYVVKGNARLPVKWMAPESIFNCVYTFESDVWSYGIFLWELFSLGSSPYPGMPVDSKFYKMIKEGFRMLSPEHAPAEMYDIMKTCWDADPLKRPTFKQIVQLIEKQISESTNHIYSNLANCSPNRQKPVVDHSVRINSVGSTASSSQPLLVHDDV

IC50 [µM]	Compound
1 to 10	Cc1cc2c(cc1Nc1nc(-c3cccnc3)cs1)nc(-c1ccc(CN3CCN(C)CC3)cc1)n2C [Compound 098, {1,6-Dimethyl-2-[4-(4-methyl-piperazin-1-ylmethyl)-phenyl]-1H-benzoimidazol-5-yl}-(4-pyridin-3-yl-thiazol-2-yl)-amine]
1 to 10	Cc1cc2c(cc1Nc1nc(-c3ccncc3)cs1)nc(-c1ccc(CN3CCN(C)CC3)cc1)n2C [Compound 099, {1,6-Dimethyl-2-[4-(4-methyl-piperazin-1-ylmethyl)-phenyl]-1H-benzoimidazol-5-yl}-(4-pyridin-4-yl-thiazol-2-yl)-amine]
≤ 1	Cc1cc2c(cc1Nc1nc(-c3ccncc3)cs1)nc(-c1cccc(C(F)F)c1)n2C(C)C [Compound 100, [2-(3-Difluoromethyl-phenyl)-1-isopropyl-6-methyl-1H-benzoimidazol-5-yl]-(4-pyridin-4-yl-thiazol-2-yl)-amine]
≤ 1	Cc1cc2c(cc1Nc1nc(-c3ccncc3)cs1)nc(-c1cccc(C(F)(F)F)c1)n2C(C)C [Compound 101, [1-Isopropyl-6-methyl-2-(3-trifluoromethyl-phenyl)-1H-benzoimidazol-5-yl]-(4-pyridin-4-yl-thiazol-2-yl)-amine]
≤ 1	Cc1cccc(-c2nc3cc(Nc4nc(-c5ccncc5)cs4)c(C)cc3n2C(C)C)c1 [Compound 102, (1-Isopropyl-6-methyl-2-m-tolyl-1H-benzoimidazol-5-yl)-(4-pyridin-4-yl-thiazol-2-yl)-amine]
≤ 1	CCn1c(-c2cccc(C(F)F)c2)nc2cc(Nc3nc(-c4ccncc4)cs3)c(C)cc21 [Compound 103]
≤ 1	CCn1c(-c2cccc(C)c2)nc2cc(Nc3nc(-c4ccncc4)cs3)c(C)cc21 [Compound 104, (1-Ethyl-6-methyl-2-m-tolyl-1H-benzoimidazol-5-yl)-(4-pyridin-4-yl-thiazol-2-yl)-amine]
≤ 1	CCn1c(-c2cccc(C(F)(F)F)c2)nc2cc(Nc3nc(-c4ccncc4)cs3)c(C)cc21 [Compound 105, [1-Ethyl-6-methyl-2-(3-trifluoromethyl-phenyl)-1H-benzoimidazol-5-yl]-(4-pyridin-4-yl-thiazol-2-yl)-amine]
≤ 1	Cc1cc2[nH]c(-c3cccc(C(F)(F)F)c3)nc2cc1Nc1nc(-c2ccnc(Cl)c2)cs1 [Compound 106, [4-(2-Chloro-pyridin-4-yl)-thiazol-2-yl]-[6-methyl-2-(3-trifluoromethyl-phenyl)-1H-benzoimidazol-5-yl]-amine]
≤ 1	Cc1cccc(-c2nc3cc(Nc4nc(-c5ccnc(Cl)c5)cs4)c(C)cc3[nH]2)c1 [Compound 107, [4-(2-Chloro-pyridin-4-yl)-thiazol-2-yl]-(6-methyl-2-m-tolyl-1H-benzoimidazol-5-yl)-amine]
≤ 1	Cc1cc2[nH]c(-c3cccc(C(F)F)c3)nc2cc1Nc1nc(-c2ccnc(Cl)c2)cs1 [Compound 108, [4-(2-Chloro-pyridin-4-yl)-thiazol-2-yl]-[2-(3-difluoromethyl-phenyl)-6-methyl-1H-benzoimidazol-5-yl]-amine]
≤ 1	CCn1c(-c2cccc(C(F)F)c2)nc2cc(Nc3nc(-c4cccnc4)cs3)c(C)cc21 [Compound 109]
≤ 1	CCn1c(-c2cccc(C(F)(F)F)c2)nc2cc(Nc3nc(-c4cccnc4)cs3)c(C)cc21 [Compound 110, [1-Ethyl-6-methyl-2-(3-trifluoromethyl-phenyl)-1H-benzoimidazol-5-yl]-(4-pyridin-3-yl-thiazol-2-yl)-amine]
≤ 1	Cc1cc2c(cc1Nc1nc(-c3ccc(C#N)cc3)cs1)nc(-c1cccc(C(F)F)c1)n2C [Compound 111, 4-{2-[2-(3-Difluoromethyl-phenyl)-1,6-dimethyl-1H-benzoimidazol-5-ylamino]-thiazol-4-yl}-benzonitrile]
≤ 1	Cc1cccc(-c2nc3cc(Nc4nc(-c5ccc(C#N)cc5)cs4)c(C)cc3n2C)c1 [Compound 112, 4-[2-(1,6-Dimethyl-2-m-tolyl-1H-benzoimidazol-5-ylamino)-thiazol-4-yl]-benzonitrile]
1 to 10	Cc1cc2nc(-c3cccc(C(F)F)c3)n(C)c2cc1Nc1nc(-c2cccnc2)cs1 [Compound 113, [2-(3-Difluoromethyl-phenyl)-3,6-dimethyl-3H-benzoimidazol-5-yl]-(4-pyridin-3-yl-thiazol-2-yl)-amine]
≤ 1	Cc1cc2c(cc1Nc1nc(-c3ccc(C#N)cc3)cs1)nc(-c1cccc(C(F)(F)F)c1)n2C [Compound 114, 4-{2-[1,6-Dimethyl-2-(3-trifluoromethyl-phenyl)-1H-benzoimidazol-5-ylamino]-thiazol-4-yl}-benzonitrile]
≤ 1	CCn1c(-c2cccc(OC(F)(F)F)c2)nc2cc(Nc3nc(-c4cccnc4)cs3)c(C)cc21 [Compound 115, [1-Ethyl-6-methyl-2-(3-trifluoromethoxy-phenyl)-1H-benzoimidazol-5-yl]-(4-pyridin-3-yl-thiazol-2-yl)-amine]

IC50 [µM]	Compound
1 to 10	Cc1cc2nc(-c3cccc(C(F)(F)F)c3)n(C)c2cc1Nc1nc(-c2cccnc2)cs1 [Compound 116, [3,6-Dimethyl-2-(3-trifluoromethyl-phenyl)-3H-benzoimidazol-5-yl]-(4-pyridin-3-yl-thiazol-2-yl)-amine]
1 to 10	Cc1cc2nc(-c3cccc(OC(F)(F)F)c3)n(C)c2cc1Nc1nc(-c2cccnc2)cs1 [Compound 117, [3,6-Dimethyl-2-(3-trifluoromethoxy-phenyl)-3H-benzoimidazol-5-yl]-(4-pyridin-3-yl-thiazol-2-yl)-amine]
1 to 10	Cc1cccc(-c2nc3cc(C)c(Nc4nc(-c5cccnc5)cs4)cc3n2C)c1 [Compound 118, (3,6-Dimethyl-2-m-tolyl-3H-benzoimidazol-5-yl)-(4-pyridin-3-yl-thiazol-2-yl)-amine]
≤ 1	Cc1cc2c(cc1Nc1nc(-c3ccnc(Cl)c3)cs1)nc(-c1cccc(C(F)F)c1)n2C [Compound 119, [4-(2-Chloro-pyridin-4-yl)-thiazol-2-yl]-[2-(3-difluoromethyl-phenyl)-1,6-dimethyl-1H-benzoimidazol-5-yl]-amine]
≤ 1	Cc1cc2c(cc1Nc1nc(-c3ccncc3)cs1)nc(-c1cccc(S(C)(=O)=O)c1)n2C [Compound 120, [2-(3-Methanesulfonyl-phenyl)-1,6-dimethyl-1H-benzoimidazol-5-yl]-(4-pyridin-4-yl-thiazol-2-yl)-amine]
≤ 1	Cc1cc2[nH]c(-c3cccc(S(C)(=O)=O)c3)nc2cc1Nc1nc(-c2cccnc2)cs1 [Compound 121, [2-(3-Methanesulfonyl-phenyl)-6-methyl-1H-benzoimidazol-5-yl]-(4-pyridin-3-yl-thiazol-2-yl)-amine]
1 to 10	C=CS(=O)(=O)Nc1cc(-c2nc3cc(Nc4nc(-c5ccncc5)cs4)c(C)cc3n2C)cc(C(F)(F)F)c1 [Compound 122, Ethenesulfonic acid {3-[1,6-dimethyl-5-(4-pyridin-4-yl-thiazol-2-ylamino)-yl]-5-trifluoromethyl-phenyl}-amide]
1 to 10	Cc1cc2[nH]c(-c3cccc(F)c3)nc2cc1Nc1nc(-c2cccnc2)cs1 [Compound 123, [2-(3-Fluoro-phenyl)-6-methyl-1H-benzoimidazol-5-yl] (4-pyridin-3-yl-thiazol-2-yl)-amine]
≤ 1	Cc1cc2c(cc1Nc1nc(-c3ccncc3)cs1)nc(-c1cccc(F)c1)n2C [Compound 124, [2-(3-Fluoro-phenyl)-1,6-dimethyl-1H-benzoimidazol-5-yl]-(4-pyridin-4-yl-thiazol-2-yl)-amine]
≤ 1	COc1cccc(-c2nc3cc(Nc4nc(-c5ccncc5)cs4)c(C)cc3n2C)c1 [Compound 125, [2-(3-Methoxy-phenyl)-1,6-dimethyl-1H-benzoimidazol-5-yl]-(4-pyridin-4-yl-thiazol-2-yl)-amine]
≤ 1	COc1cccc(-c2nc3cc(Nc4nc(-c5cccnc5)cs4)c(C)cc3[nH]2)c1 [Compound 126, [2-(3-Methoxy-phenyl)-6-methyl-1H-benzoimidazol-5-yl]-(4-pyridin-3-yl-thiazol-2-yl)-amine]
≤ 1	Cc1cc2nc(-c3cccc(C(F)F)c3)[nH]c2cc1Nc1nc(-c2cccc(C#N)c2)cs1 [Compound 127, 3-{2-[2-(3-Difluoromethyl-phenyl)-6-methyl-3H-benzoimidazol-5-ylamino]-thiazol-4-yl}-benzonitrile]
≤ 1	COc1cccc(-c2nc3cc(Nc4nc(-c5ccc(C#N)cc5)cs4)c(C)cc3[nH]2)c1 [Compound 128, 4-{2-[2-(3-Methoxy-phenyl)-6-methyl-1H-benzoimidazol-5-ylamino]-thiazol-4-yl}-benzonitrile]
≤ 1	Cc1cccc(-c2nc3cc(Nc4nc(-c5cccc(C#N)c5)cs4)c(C)cc3[nH]2)c1 [Compound 129, 3-[2-(6-Methyl-2-m-tolyl-1H-benzoimidazol-5-ylamino)-thiazol-4-yl]-benzonitrile]
≤ 1	Cc1cc2[nH]c(-c3cccc(C(F)(F)F)c3)nc2cc1Nc1nc(-c2cccc(C#N)c2)cs1 [Compound 130, 3-{2-[6-Methyl-2-(3-trifluoromethyl-phenyl)-1H-benzoimidazol-5-ylamino]-thiazol-4-yl}-benzonitrile]
≤ 1	Cc1cc2[nH]c(-c3cccc(S(C)(=O)=O)c3)nc2cc1Nc1nc(-c2ccc(C#N)cc2)cs1 [Compound 131, 4-{2-[2-(3-Methanesulfonyl-phenyl)-6-methyl-1H-benzoimidazol-5-ylamino]-thiazol-4-yl}-benzonitrile]
≤ 1	Cc1cc2nc(-c3cccc(N(C)C)c3)[nH]c2cc1Nc1nc(-c2cccnc2)cs1 [Compound 132, [2-(3-Dimethylamino-phenyl)-6-methyl-3H-benzoimidazol-5-yl]-(4-pyridin-3-yl-thiazol-2-yl)-amine]
≤ 1	Cc1cc2c(cc1Nc1nc(-c3ccncc3)cs1)nc(-c1cccc(N(C)C)c1)n2C [Compound 133]
